This is an account of results in the NIST ThermoML archive (doi:10.1016/j.fluid.2014.11.020).

A short description of this data set: activity coefficient (dimensionless); of the first substance listed, at infinite dilution; xn = mol fraction of the nth substance listed. As to conditions: Liquid, Chromatography, x1 = 0.

Structures are written as SMILES. Numbers after ± are expanded uncertainties.

Turning to `C1CCCCCC1` [cycloheptane] + CN(C)c1cc[n+](COCCCOC[n+]2ccc(N(C)C)cc2)cc1.O=S(=O)([N-]S(=O)(=O)C(F)(F)F)C(F)(F)F.O=S(=O)([N-]S(=O)(=O)C(F)(F)F)C(F)(F)F, the activity coefficient (323.15 K) worked out at 27 ± 1.9, the activity coefficient (333.15 K) is 34.9 ± 2.4 and the activity coefficient (343.15 K) came out at 42.8 ± 2.9.
The matching figures for `C1COCCO1` [1,4-dioxane] + CCCCCCCCn1cc[n+](COCCCOC[n+]2ccn(CCCCCCCC)c2C)c1C.N#C[N-]C#N.N#C[N-]C#N: 0.55 ± 0.04, 0.55 ± 0.04 and 0.55 ± 0.04.
The like results for `C1CCCCC1` [cyclohexane] + CCCCCCCCn1cc[n+](COCCC)c1C.N#C[N-]C#N were, in that order, 4.06 ± 0.28, 3.85 ± 0.26 and 3.82 ± 0.26.
The like results for `C1CCCCC1` [cyclohexane] + CCCOC[n+]1ccc(N(C)C)cc1.O=S(=O)([N-]S(=O)(=O)C(F)(F)F)C(F)(F)F were, in that order, 7.06 ± 0.48, 6.83 ± 0.47 and 6.37 ± 0.43.
As to `Cc1ccc(C)cc1` [1,4-dimethylbenzene] + CCCOC[n+]1ccc(N(C)C)cc1.O=S(=O)([N-]S(=O)(=O)C(F)(F)F)C(F)(F)F, the activity coefficient was 1.38 ± 0.09 (323.15 K), 1.45 ± 0.1 (333.15 K) and 1.45 ± 0.1 (343.15 K).
As to `Cc1ccccc1C` [1,2-dimethylbenzene] + CCCCCCCCn1cc[n+](COCCCOC[n+]2ccn(CCCCCCCC)c2C)c1C.N#C[N-]C#N.N#C[N-]C#N, the activity coefficient runs as follows: (323.15 K) 1.16 ± 0.07; (333.15 K) 1.18 ± 0.08; (343.15 K) 1.22 ± 0.08.
The matching figures for `CC1CCCC1` [methylcyclopentane] + CCCCCCCCn1cc[n+](COCCCOC[n+]2ccn(CCCCCCCC)c2C)c1C.N#C[N-]C#N.N#C[N-]C#N: 4.75 ± 0.32, 4.7 ± 0.32 and 4.63 ± 0.32.
Consider `CCCCCCCCCCCC` [dodecane] + Cn1cc[n+](COCCCOC[n+]2ccn(C)c2)c1.N#C[N-]C#N.N#C[N-]C#N, for which the activity coefficient is, setting by setting: (323.15 K) 1150 ± 79; (333.15 K) 962 ± 66; (343.15 K) 932 ± 64.
For `Cc1ccc(C)cc1` [1,4-dimethylbenzene] + Cn1cc[n+](COCCCOC[n+]2ccn(C)c2)c1.N#C[N-]C#N.N#C[N-]C#N, the activity coefficient came out at 10.5 ± 0.72 (323.15 K), 10.2 ± 0.69 (333.15 K) and 9.96 ± 0.68 (343.15 K).
The matching figures for `ClCCl` [dichloromethane] + Cn1cc[n+](COCCCOC[n+]2ccn(C)c2)c1.N#C[N-]C#N.N#C[N-]C#N: 0.73 ± 0.05, 0.8 ± 0.05 and 0.86 ± 0.06.
For `CO` [methanol] + CCCCCCCCn1cc[n+](COCCC)c1C.O=S(=O)([N-]S(=O)(=O)C(F)(F)F)C(F)(F)F, the activity coefficient reads like this: (323.15 K) 0.98 ± 0.06; (333.15 K) 0.89 ± 0.06; (343.15 K) 0.85 ± 0.05.
As for `CCCCCC` [hexane] + CCCOC[n+]1ccn(Cc2ccccc2)c1.O=S(=O)([N-]S(=O)(=O)C(F)(F)F)C(F)(F)F, the activity coefficient (323.15 K) amounted to 7.52 ± 0.51, the activity coefficient (333.15 K) turned out to be 7.21 ± 0.49 and the activity coefficient (343.15 K) stood at 6.92 ± 0.47.
As to `CCC(C)=O` [butanone] + CCCOC[n+]1ccn(Cc2ccccc2)c1.N#C[N-]C#N, the activity coefficient was determined as 0.9 ± 0.06 (323.15 K), 0.87 ± 0.06 (333.15 K) and 0.81 ± 0.05 (343.15 K).
Take `c1ccncc1` [pyridine] + N#C[N-]C#N.N#C[N-]C#N.c1ccc(Cn2cc[n+](COCCCOC[n+]3ccn(Cc4ccccc4)c3)c2)cc1: the activity coefficient (323.15 K) came to 1.1 ± 0.07, the activity coefficient (333.15 K) was found to be 1.1 ± 0.07 and the activity coefficient (343.15 K) was found to be 1.12 ± 0.07.
On to `CCc1ccccc1` [ethylbenzene] + CCCOC[n+]1ccn(Cc2ccccc2)c1.F[B-](F)(F)F, for which the activity coefficient (323.15 K) was determined as 4.89 ± 0.33, the activity coefficient (333.15 K) stood at 4.71 ± 0.32 and the activity coefficient (343.15 K) turned out to be 4.73 ± 0.32.
Regarding `CCO` [ethanol] + CCCCCCCCn1cc[n+](COCCC)c1C.N#C[N-]C#N, the activity coefficient by setting is: (323.15 K) 0.39 ± 0.03; (333.15 K) 0.38 ± 0.03; (343.15 K) 0.38 ± 0.03.
On to `CCC(C)=O` [butanone] + CCCCCCCCn1cc[n+](COCCC)c1C.O=S(=O)([N-]S(=O)(=O)C(F)(F)F)C(F)(F)F, for which the activity coefficient reads like this: (323.15 K) 0.36 ± 0.03; (333.15 K) 0.33 ± 0.03; (343.15 K) 0.3 ± 0.03.
Take `Cc1ccc(C)cc1` [1,4-dimethylbenzene] + CCCCCCCCn1cc[n+](COCCCOC[n+]2ccn(CCCCCCCC)c2C)c1C.O=S(=O)([N-]S(=O)(=O)C(F)(F)F)C(F)(F)F.O=S(=O)([N-]S(=O)(=O)C(F)(F)F)C(F)(F)F: the activity coefficient (323.15 K) was 0.75 ± 0.05, the activity coefficient (333.15 K) came to 0.73 ± 0.05 and the activity coefficient (343.15 K) worked out at 0.73 ± 0.05.
For the compound `Cc1ccccc1` [toluene] + N#C[N-]C#N.N#C[N-]C#N.c1ccc(Cn2cc[n+](COCCCOC[n+]3ccn(Cc4ccccc4)c3)c2)cc1, the activity coefficient (323.15 K) came out at 5.08 ± 0.35, the activity coefficient (333.15 K) turned out to be 4.97 ± 0.34 and the activity coefficient (343.15 K) turned out to be 4.8 ± 0.33.
For the compound `C1COCCO1` [1,4-dioxane] + Cn1cc[n+](COCCCOC[n+]2ccn(C)c2)c1.N#C[N-]C#N.N#C[N-]C#N, the activity coefficient was 1.09 ± 0.07 (323.15 K), 1.11 ± 0.07 (333.15 K) and 1.13 ± 0.07 (343.15 K).
Turning to `c1ccsc1` [thiophene] + CCCOC[n+]1ccc(N(C)C)cc1.O=S(=O)([N-]S(=O)(=O)C(F)(F)F)C(F)(F)F, the activity coefficient (323.15 K) stood at 0.65 ± 0.04, the activity coefficient (333.15 K) turned out to be 0.69 ± 0.05 and the activity coefficient (343.15 K) turned out to be 0.69 ± 0.05.
For `C#CCCCCC` [1-heptyne] + CCCOC[n+]1ccn(C)c1.F[B-](F)(F)F, the activity coefficient is, setting by setting: (323.15 K) 16.6 ± 1.1; (333.15 K) 16.7 ± 1.1; (343.15 K) 16.7 ± 1.1.
Turning to `CCC(C)=O` [butanone] + Cn1cc[n+](COCCCOC[n+]2ccn(C)c2)c1.N#C[N-]C#N.N#C[N-]C#N, the activity coefficient amounted to 1.7 ± 0.11 (323.15 K), 1.56 ± 0.1 (333.15 K) and 1.44 ± 0.09 (343.15 K).
Consider `CC#N` [acetonitrile] + CCCOC[n+]1ccn(C)c1.N#C[N-]C#N, for which the activity coefficient (323.15 K) turned out to be 0.77 ± 0.05, the activity coefficient (333.15 K) stood at 0.78 ± 0.05 and the activity coefficient (343.15 K) is 1.09 ± 0.07.
`Cc1ccccc1` [toluene] + CCCOC[n+]1ccn(C)c1.F[B-](F)(F)F: the activity coefficient is, setting by setting: (323.15 K) 6.06 ± 0.41; (333.15 K) 6.02 ± 0.41; (343.15 K) 5.98 ± 0.41.
For `Cc1cccc(C)c1` [1,3-dimethylbenzene] + CCCCCCCCn1cc[n+](COCCCOC[n+]2ccn(CCCCCCCC)c2C)c1C.O=S(=O)([N-]S(=O)(=O)C(F)(F)F)C(F)(F)F.O=S(=O)([N-]S(=O)(=O)C(F)(F)F)C(F)(F)F, the activity coefficient is, setting by setting: (323.15 K) 0.75 ± 0.05; (333.15 K) 0.72 ± 0.05; (343.15 K) 0.74 ± 0.05.
The matching figures for `ClCCl` [dichloromethane] + CCCOC[n+]1ccn(Cc2ccccc2)c1.O=S(=O)([N-]S(=O)(=O)C(F)(F)F)C(F)(F)F: 0.52 ± 0.04, 0.44 ± 0.04 and 0.37 ± 0.03.
With `CC(C)CO` [2-methyl-1-propanol] + CN(C)c1cc[n+](COCCCOC[n+]2ccc(N(C)C)cc2)cc1.O=S(=O)([N-]S(=O)(=O)C(F)(F)F)C(F)(F)F.O=S(=O)([N-]S(=O)(=O)C(F)(F)F)C(F)(F)F, the activity coefficient reads like this: (323.15 K) 1.85 ± 0.12; (333.15 K) 1.66 ± 0.11; (343.15 K) 1.5 ± 0.1.
Take `c1ccsc1` [thiophene] + CCCCCCCCn1cc[n+](COCCC)c1C.N#C[N-]C#N: the activity coefficient reads like this: (323.15 K) 0.66 ± 0.05; (333.15 K) 0.66 ± 0.05; (343.15 K) 0.64 ± 0.04.
Regarding `CCCCCCCCCCCC` [dodecane] + CCCOC[n+]1ccn(C)c1.F[B-](F)(F)F, the activity coefficient turned out to be 1160 ± 80 (323.15 K), 1160 ± 80 (333.15 K) and 1150 ± 79 (343.15 K).
Consider `CO` [methanol] + N#C[N-]C#N.N#C[N-]C#N.c1ccc(Cn2cc[n+](COCCCOC[n+]3ccn(Cc4ccccc4)c3)c2)cc1, for which the activity coefficient is, setting by setting: (323.15 K) 0.52 ± 0.04; (333.15 K) 0.51 ± 0.04; (343.15 K) 0.52 ± 0.04.
For the compound `CCCCO` [butan-1-ol] + Cn1cc[n+](COCCCOC[n+]2ccn(C)c2)c1.O=S(=O)([N-]S(=O)(=O)C(F)(F)F)C(F)(F)F.O=S(=O)([N-]S(=O)(=O)C(F)(F)F)C(F)(F)F, the activity coefficient runs as follows: (323.15 K) 2.02 ± 0.14; (333.15 K) 1.85 ± 0.12; (343.15 K) 1.64 ± 0.11.
`CCCCO` [butan-1-ol] + CCCCCCCCn1cc[n+](COCCCOC[n+]2ccn(CCCCCCCC)c2C)c1C.O=S(=O)([N-]S(=O)(=O)C(F)(F)F)C(F)(F)F.O=S(=O)([N-]S(=O)(=O)C(F)(F)F)C(F)(F)F: the activity coefficient runs as follows: (323.15 K) 0.84 ± 0.05; (333.15 K) 0.74 ± 0.05; (343.15 K) 0.69 ± 0.05.
The like results for `C1CCCCCC1` [cycloheptane] + CCCOC[n+]1ccn(Cc2ccccc2)c1.O=S(=O)([N-]S(=O)(=O)C(F)(F)F)C(F)(F)F were, in that order, 13.4 ± 0.91, 15.8 ± 1.1 and 20.5 ± 1.4.
The like results for `CC(C)CO` [2-methyl-1-propanol] + CCCOC[n+]1ccn(C)c1.N#C[N-]C#N were, in that order, 1.29 ± 0.08, 1.25 ± 0.08 and 1.21 ± 0.08.
`Cc1ccccc1C` [1,2-dimethylbenzene] + CCCCCCCCn1cc[n+](COCCC)c1C.O=S(=O)([N-]S(=O)(=O)C(F)(F)F)C(F)(F)F: the activity coefficient was found to be 0.94 ± 0.06 (323.15 K), 0.94 ± 0.06 (333.15 K) and 0.94 ± 0.06 (343.15 K).
`CCC(C)CC` [3-methylpentane] + CCCOC[n+]1ccn(C)c1.O=S(=O)([N-]S(=O)(=O)C(F)(F)F)C(F)(F)F: the activity coefficient stood at 14.4 ± 0.98 (323.15 K) and 10.8 ± 0.74 (333.15 K).
